We go through one compound from PMC8058733, “A pain killer without analgesic tolerance designed by co-targeting PSD-95-nNOS interaction and α2-containning GABAARs” (Theranostics, 2021).

The subject of data set [1] is α1-containing GABAAR. Also on record: method as in PMID 15763546. Particulars: Xenopus laevis oocytes, high dose; cited from earlier work.
Data set [2] deals with BDNF. The data set is described as follows: Western blot of BDNF levels in the spinal dorsal horn after SNL. The format is in vivo, rat. The settings on record: SNL rats, (+)-borneol 10 mg/kg, i.v., × 3 d. The procedure: (§1) Western bolt analysis was performed as described previously. Briefly, the dorsal spinal cord (L4 and L5) was dissected from sham or SNL rats and homogenized in 400μl RIPA lysis buffer containing 1 μM pepstatin, 10 μg/ml aprotinin, 10 μg/ml leupeptin, 10 μg/ml and 10 μM phenylmethylsufonyl fluoride (PMSF). After lysis for 30 min in ice, samples were centrifuged at 12,000 g for 15 min. The protein content in each supernatant fraction was determined by using Bradford's solution, and samples containing equivalent amounts of protein were applied to 10% or 15% (10% for GABA(A)α2 and α3, 15% for BDNF) acrylamide denaturing gels (SDS-PAGE). The separated proteins were transferred onto a polyvinylidene fluoride membrane. The primary antibodies were as follows: rabbit anti-GABA(A)α2 (1:500; Millipore AB5948), rabbit anti-GABA(A)α3 (1:500; Millipore AB5594), rabbit anti-BDNF (1:1000; Thermo PA1-18357, RRID:AB_1070634). Internal control was performed using rabbit anti-β-actin (1:1000; Bioss bs-0061R, RRID: AB_10855480). Appropriate horseradish peroxidase-linked secondary antibodies were used for detection by enhanced chemiluminescence (Bio-Rad).

The subject of data set [3] is SNL-induced mechanical hyperalgesia. The data set is described as follows: SNL-induced mechanical hyperalgesia, paw withdrawal threshold. The format is in vivo, rat. The settings on record: SNL rats, (+)-borneol 5 mg/kg/d, i.v., 11 consecutive days. The procedure: Neuropathic pain was induced by segmental spinal nerve ligation (SNL). Animals were anesthetized with isoflurane. After the loss of righting reflex, the animal was fixed in the prone position. The SNL model was prepared as described previously: a median skin incision with about 3-5 cm length in L4-S2 level of the mouse back was made, the muscles next to the vertebrae till the sixth lumbar protruding were separated, the L5/L6 joint protruding on the right side was exposed and excised, and L6 processus transversus was partially split so that the L4-L6 spinal nerves on the right side were exposed. L5 nerve was gently isolated and tightly ligated with 5-0 silk thread. The wound was closed with 4-0 silk thread suture and covered with iodine solution. After nerve ligation, animals with signs of paw clonus or autotomy were excluded from further experiments.
Osmotic minipumps (models 1004 for mouse and 2ML4 for rat; Alzet) and intrathecal cannulas (0.61 mm outer diameter and 0.28 mm inner diameter for mouse, 0.99 mm outer diameter and 0.58 mm inner diameter for rat) were filled with a solution of PBS. Cannulas were inserted into the subarachnoid space through the space between the L5 and L6 vertebrae and the tip of the catheter was implanted at the L5 spinal segmental level.
For rats, the threshold for 50% paw withdrawal (50% PWT) response to mechanical stimulus was assessed through a dynamic plantar apparatus (Ugo Basile, Italy). The 50% PWT refers to that the probability of paw withdrawal response to repeated mechanical stimulus is 50%. Rats were placed individually in a plastic cage (17 × 15 × 15 cm) with a wire mesh bottom which allowed full access to the paws. Behavioral accommodation was allowed for 15-20 min until cage exploration and major grooming activities ceased. A maximal cut-off of 50g/50s was set to prevent tissue damage. To record the PWT in response to mechanical stimulus, each rat was measured five times with a 5-min interval, and the mean value was recorded after excluding maximal and minimum values. The experimental procedures were performed in a double-blind manner.

Data set [4] deals with putative excitatory neurons of brain cortex. The data set is described as follows: Potentiation of GABA-evoked currents in acute brain cortex slices. The settings on record: Neuron; rat brain cortex slices, n = 12. The data set is classed as cell-based.
Data set [5] concerns the target T1, PSD-95-nNOS complex (Rattus norvegicus, UniProt P29476).
T1 construct: dorsal spinal cord tissues (L4 and L5) were lysed in 400 μl RIPA; from tissue; host or cells: rat dorsal spinal cord (L4 and L5), SNL model
The data set is described as follows: Co-IP of PSD-95-nNOS complex levels in the spinal dorsal horn after SNL. The data set is classed as in vivo. The settings on record: SNL rats, (+)-borneol 5 mg/kg/d, i.v., × 3 d.

The target in data set [6] is T2, α3β3γ2 GABAARs (Homo sapiens, UniProt P18507+P28472+P34903).
T2 construct: Shanghai Genechem Co.,Ltd (γ2 plasmid); host or cells: HEK293
The data set is described as follows: Potentiation of GABA-evoked currents, whole-cell patch-clamp in HEK293 cells transiently expressing recombinant GABAARs. The data set is classed as cell-based. Particulars: α3β3γ2, n = 8. As for the experimental part:
(§2) The affinities of drugs for α1, α2, α3 and α5 subunits were studied in the HEK293 cells (from FuHeng Biology, Shanghai, China) transiently expressing recombinant GABAARs (α1β2γ2, α2β3γ2, α3β3γ2 and α5β2γ2) as described previously. Briefly, the HEK293 cells were cultured in MEM medium supplemented with 10% FBS (fetal bovine serum, Gibico), 1% L-glutamine (Gibco) and 1% mycillin (Gibco). Before transfection, the cells were subcultured onto a 3.5cm dish at the ratio of 1:2. Then, the plasmids of α1/α2/α3/α5 (Origene), β2/β3 (Origene) and γ2 (Shanghai Genechem Co.,Ltd ) (5μg total DNA, ratio 1:1:2) were transfected using Fugene®HD transfection reagent (Promega). The γ2 subunit contained GFP from IRES (internal ribosomal entry site) and was used as a marker of the successful transfection. Cells were used for electrophysiology recording 18-36 hours after transfection.
(§3) Electrophysiology recordings from HEK293 cells were performed as described previously. Briefly, whole-cell patch-clamp recordings of GABA-evoked currents were made at 30 °C with the holding potential of -60 mV. The internal solution (solution in recording electrodes) contained (in mM): 120 CsCl, 10 EGTA, 10 HEPES, 4 MgCl2, 0.5 GTP, 2 ATP and pH was adjusted to 7.4 with CsOH and the external solution contained (in mM): 150 NaCl, 10 KCl, 2 CaCl2, 1 MgCl, 10 HEPES, 10 Glucose and pH was adjusted to 7.4 with NaOH. ACSF was bubbled continuously with carbogen (95%O2 and 5%CO2). For the recording of GABA-evoked currents, the slides were transferred to a recording chamber, which was perfused with ACSF at a rate of 4 ml/min. The cells were viewed under upright microscopy (Olympus), and GFP-positive cells were selected to record the currents. The interval time between each different dose of GABA was controlled, 3 to 5 minutes to avoid the desensitization of GABAARs.

Data set [7] addresses T3, α2β3γ2 GABAARs (Homo sapiens, UniProt P18507+P28472+P47869).
T3 construct: Shanghai Genechem Co.,Ltd (γ2 plasmid); host or cells: HEK293
Described as above. The format is cell-based. The settings on record: α2β3γ2, n = 8. As for the experimental part:
as §2, §3

In data set [8] the target is T4, α1β2γ2 GABAARs (Homo sapiens, UniProt P14867+P18507+P47870).
T4 construct: Shanghai Genechem Co.,Ltd (γ2 plasmid); host or cells: HEK293
Described as above. The format is cell-based. The settings on record: α1β2γ2. As for the experimental part:
as §2, §3

Data set [9] relates to α3 subunit of GABAARs. The data set is described as follows: Western blot of GABAAR subunit levels in the spinal dorsal horn. The settings on record: SNL rats, (+)-borneol 5 mg/kg/d, i.v., × 11 d. The format is in vivo, rat. The procedure:
as §1

Data set [10] relates to α2 subunit of GABAARs. Described as above. The data set is classed as in vivo, rat. Particulars: SNL rats, (+)-borneol 5 mg/kg/d, i.v., × 11 d. The procedure:
as §1

Data set [11] deals with locomotor activity. The data set is described as follows: Open field test, locomotor activity. The format is in vivo. The settings on record: mice, (+)-borneol 45 mg/kg, i.v. The procedure: The locomotor activity was assessed by the open field test as described previously. The apparatus consisted of a large area composed of plastic, surrounded by walls that were 100 cm high. The floor was 50 × 50 cm for mice; the overall illumination was 25 lux. Each animal was gently placed in the center of the open field, and its behavior was videotaped. The distance the animals travelled was measured in a 5-min session using ANY-maze (Stoelting Co., IL, USA). After each trial, the plate was cleaned with 70% EtOH. No stressor was applied to the animals for at least 12 h before the test.

T4 sequence (P14867 28-456): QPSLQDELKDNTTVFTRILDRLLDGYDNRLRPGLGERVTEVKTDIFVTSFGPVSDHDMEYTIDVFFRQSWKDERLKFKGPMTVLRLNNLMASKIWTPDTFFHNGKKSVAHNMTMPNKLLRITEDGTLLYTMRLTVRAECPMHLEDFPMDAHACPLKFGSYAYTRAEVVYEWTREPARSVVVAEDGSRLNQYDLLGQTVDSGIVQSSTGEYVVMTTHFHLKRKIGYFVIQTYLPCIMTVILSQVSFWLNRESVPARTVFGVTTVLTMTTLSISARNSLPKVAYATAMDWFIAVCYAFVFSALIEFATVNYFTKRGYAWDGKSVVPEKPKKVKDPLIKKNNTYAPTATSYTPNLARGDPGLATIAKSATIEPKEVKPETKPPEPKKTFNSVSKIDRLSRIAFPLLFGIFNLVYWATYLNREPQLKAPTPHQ
T4 sequence (P47870 25-512 limits assumed): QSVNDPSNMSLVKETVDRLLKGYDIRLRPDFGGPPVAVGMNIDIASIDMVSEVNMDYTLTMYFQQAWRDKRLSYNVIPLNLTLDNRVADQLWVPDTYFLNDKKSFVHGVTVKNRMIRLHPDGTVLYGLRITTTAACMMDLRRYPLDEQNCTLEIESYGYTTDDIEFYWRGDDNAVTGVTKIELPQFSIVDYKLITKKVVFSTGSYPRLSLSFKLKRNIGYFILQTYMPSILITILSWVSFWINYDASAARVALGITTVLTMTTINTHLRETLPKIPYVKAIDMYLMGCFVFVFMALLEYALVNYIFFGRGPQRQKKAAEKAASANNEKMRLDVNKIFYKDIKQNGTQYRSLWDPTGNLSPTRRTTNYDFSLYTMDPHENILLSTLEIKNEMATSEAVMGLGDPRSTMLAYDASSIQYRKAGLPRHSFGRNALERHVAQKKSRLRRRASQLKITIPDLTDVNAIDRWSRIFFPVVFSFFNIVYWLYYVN
T4 sequence (P18507 40-475): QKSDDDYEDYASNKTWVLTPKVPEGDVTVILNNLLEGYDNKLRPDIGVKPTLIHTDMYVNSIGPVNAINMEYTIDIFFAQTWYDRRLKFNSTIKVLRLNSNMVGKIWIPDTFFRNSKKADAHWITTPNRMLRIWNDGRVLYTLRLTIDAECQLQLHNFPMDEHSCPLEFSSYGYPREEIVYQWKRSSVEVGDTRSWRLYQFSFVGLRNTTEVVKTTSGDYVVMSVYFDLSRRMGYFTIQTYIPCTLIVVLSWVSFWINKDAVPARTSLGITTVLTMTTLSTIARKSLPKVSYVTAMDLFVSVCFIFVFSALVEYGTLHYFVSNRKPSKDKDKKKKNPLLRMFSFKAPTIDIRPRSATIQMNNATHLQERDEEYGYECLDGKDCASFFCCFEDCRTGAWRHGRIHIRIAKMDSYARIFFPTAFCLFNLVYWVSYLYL
T1 sequence (P29476 whole entry, one chain of several): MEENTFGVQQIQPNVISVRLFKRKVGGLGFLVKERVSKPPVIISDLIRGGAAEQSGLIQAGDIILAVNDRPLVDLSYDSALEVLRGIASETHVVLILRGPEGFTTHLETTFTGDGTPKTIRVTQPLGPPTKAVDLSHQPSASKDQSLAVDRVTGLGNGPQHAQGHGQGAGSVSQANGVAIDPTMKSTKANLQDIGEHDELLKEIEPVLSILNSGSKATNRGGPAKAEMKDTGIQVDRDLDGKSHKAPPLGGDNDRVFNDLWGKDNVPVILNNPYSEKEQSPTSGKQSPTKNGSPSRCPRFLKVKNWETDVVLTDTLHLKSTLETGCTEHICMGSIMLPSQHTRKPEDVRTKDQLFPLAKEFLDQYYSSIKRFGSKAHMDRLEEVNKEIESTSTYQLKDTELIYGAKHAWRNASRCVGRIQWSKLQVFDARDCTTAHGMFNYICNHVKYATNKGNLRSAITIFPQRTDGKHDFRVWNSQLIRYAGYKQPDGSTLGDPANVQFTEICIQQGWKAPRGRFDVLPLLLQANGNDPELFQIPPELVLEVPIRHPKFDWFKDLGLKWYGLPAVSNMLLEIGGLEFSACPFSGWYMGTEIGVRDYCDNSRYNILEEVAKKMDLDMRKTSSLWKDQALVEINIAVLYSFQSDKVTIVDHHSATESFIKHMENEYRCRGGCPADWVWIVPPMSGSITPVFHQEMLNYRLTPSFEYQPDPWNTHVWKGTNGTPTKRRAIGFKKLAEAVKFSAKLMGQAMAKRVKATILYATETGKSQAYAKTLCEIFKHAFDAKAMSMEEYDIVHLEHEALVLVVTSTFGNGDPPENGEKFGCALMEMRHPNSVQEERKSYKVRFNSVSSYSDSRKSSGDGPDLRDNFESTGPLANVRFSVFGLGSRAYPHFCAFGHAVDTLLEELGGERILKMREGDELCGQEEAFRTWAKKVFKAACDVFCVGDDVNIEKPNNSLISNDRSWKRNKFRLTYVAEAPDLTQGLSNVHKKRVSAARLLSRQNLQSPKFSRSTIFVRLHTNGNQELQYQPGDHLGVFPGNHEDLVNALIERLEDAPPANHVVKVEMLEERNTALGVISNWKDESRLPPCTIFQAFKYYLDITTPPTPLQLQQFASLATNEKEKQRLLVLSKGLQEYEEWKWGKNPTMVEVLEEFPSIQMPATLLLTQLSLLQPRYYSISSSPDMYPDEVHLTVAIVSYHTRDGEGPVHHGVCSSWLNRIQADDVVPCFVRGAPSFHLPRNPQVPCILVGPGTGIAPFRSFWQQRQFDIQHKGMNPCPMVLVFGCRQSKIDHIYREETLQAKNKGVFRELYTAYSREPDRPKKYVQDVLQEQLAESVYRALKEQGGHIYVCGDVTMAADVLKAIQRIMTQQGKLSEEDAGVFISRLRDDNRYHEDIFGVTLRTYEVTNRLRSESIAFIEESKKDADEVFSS
T2 sequence (P34903 29-492): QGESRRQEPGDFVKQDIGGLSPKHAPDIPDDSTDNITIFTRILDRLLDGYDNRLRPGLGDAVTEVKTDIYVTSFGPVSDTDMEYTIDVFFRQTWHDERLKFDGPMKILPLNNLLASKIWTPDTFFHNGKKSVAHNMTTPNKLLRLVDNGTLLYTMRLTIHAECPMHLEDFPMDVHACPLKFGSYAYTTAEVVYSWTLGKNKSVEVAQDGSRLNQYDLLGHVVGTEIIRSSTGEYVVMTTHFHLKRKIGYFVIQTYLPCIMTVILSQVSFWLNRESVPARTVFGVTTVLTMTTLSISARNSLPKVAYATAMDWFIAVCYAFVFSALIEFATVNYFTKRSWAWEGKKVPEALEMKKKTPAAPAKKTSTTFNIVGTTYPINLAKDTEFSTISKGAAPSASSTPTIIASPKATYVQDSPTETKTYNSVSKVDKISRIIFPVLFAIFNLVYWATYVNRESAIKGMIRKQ
T2 sequence (P28472 26-473): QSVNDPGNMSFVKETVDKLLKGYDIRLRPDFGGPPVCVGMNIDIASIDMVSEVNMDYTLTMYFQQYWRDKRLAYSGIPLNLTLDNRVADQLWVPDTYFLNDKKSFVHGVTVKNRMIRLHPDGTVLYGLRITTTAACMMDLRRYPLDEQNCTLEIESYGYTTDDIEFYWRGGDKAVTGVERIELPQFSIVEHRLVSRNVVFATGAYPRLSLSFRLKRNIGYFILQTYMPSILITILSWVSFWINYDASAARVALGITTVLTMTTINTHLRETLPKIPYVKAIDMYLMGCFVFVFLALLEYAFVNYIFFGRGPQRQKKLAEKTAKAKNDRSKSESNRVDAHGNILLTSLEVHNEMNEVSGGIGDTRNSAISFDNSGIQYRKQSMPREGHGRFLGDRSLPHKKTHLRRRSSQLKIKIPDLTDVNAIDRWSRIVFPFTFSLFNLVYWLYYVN
T2 sequence (P18507 40-475): as the sequence (P18507 40-475) above
T3 sequence (P47869 29-451): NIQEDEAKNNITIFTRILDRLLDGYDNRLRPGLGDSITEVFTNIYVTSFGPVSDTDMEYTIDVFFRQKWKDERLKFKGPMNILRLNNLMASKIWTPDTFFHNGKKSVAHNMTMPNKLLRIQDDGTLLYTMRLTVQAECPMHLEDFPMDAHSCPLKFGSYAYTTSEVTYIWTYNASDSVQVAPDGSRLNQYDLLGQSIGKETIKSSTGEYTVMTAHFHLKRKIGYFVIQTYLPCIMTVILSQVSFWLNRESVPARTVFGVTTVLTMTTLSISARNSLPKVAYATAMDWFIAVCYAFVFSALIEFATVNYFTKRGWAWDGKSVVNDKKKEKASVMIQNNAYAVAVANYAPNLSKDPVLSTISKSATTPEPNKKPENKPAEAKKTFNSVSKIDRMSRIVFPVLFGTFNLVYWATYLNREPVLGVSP
T3 sequence (P28472 26-473): as the sequence (P28472 26-473) above
T3 sequence (P18507 40-475): as the sequence (P18507 40-475) above

As for `CC1(C)[C@@H]2CC[C@@]1(C)[C@@H](O)C2` [(+)-borneol], the “Modulation of α1-containing GABAAR” value in data set [1] is given as “can positively modulate α1-containing GABAAR expressed in Xenopus laevis oocytes at high dose”. The “SNL-induced BDNF expression in the SDH” value in data set [2] was “significantly decreased SNL-induced BDNF expression in the SDH”. For the same compound, the “Analgesic tolerance, mechanical hyperalgesia” value in data set [3] is “caused analgesic tolerance development rapidly”. The EC50 in data set [4] was 0.4236 ± 0.0014 nM. Moreover, the values for the Emax in [4], in [6] and in data set [7] were 63.1 ± 3.4%, 109 ± 6.05% and 122 ± 11%, respectively. In addition, the “PSD-95-nNOS complex level in the SDH” value in data set [5] is listed as “increased nNOS-PSD-95 interaction in the SDH significantly”. Moreover, the “Effect on GABA-evoked currents of α1-containing GABAAR (in words)” value in [8] was “no effect on GABA-evoked currents as high as 10 μM”. The “α3 subunit of GABAARs expression in the SDH” value in data set [9] was “decreased α2 and α3 subunits of GABAARs expressions”. In addition, the “α2 subunit of GABAARs expression in the SDH” value in data set [10] was “decreased α2 and α3 subunits of GABAARs expressions”. The “Locomotor activity, distance travelled during 5 min” value in data set [11] is reported as “without BZDs-associated behavioral effects”.
